Type in all cases: in vivo
The subject of experiment [1] is melon aphids (Aphis gossypii Glover). As to the kind of experiment: Mite/insect screen, MA. Conditions: Aphis gossypii, foliar, percent mortality, foliar spray on squash, read-out: MA RESULTS %; for mortality at 200 ppm: rate 200 ppm; for mortality at 400 ppm: rate 400 ppm. The procedure, abridged:
(§1)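 First, each compound was dissolved in an emulsifier-containing acetone/alcohol mixture and diluted with water. Next, leaves were sprayed until runoff and left to dry for an hour. For southern armyworm, two excised uninfested leaves went into a Petri dish with larvae; percent mortality followed standard exposure periods.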

Experiment [2] has as its system Pseudoperonospora cubensis (downy mildew). The experiment can be described thus: Test 1 greenhouse foliar spray screen, downy mildew on squash. The settings on record: for DOWN MDEW: disease control rating, foliar spray on squash, 400 ppm (+++ at 100 ppm); for pest or weed control at 400 ppm: Pseudoperonospora cubensis, foliar, Test 1, foliar spray on squash, disease control rating at 400 ppm / 100 ppm, read-out: DOWN MDEW.

Experiment [3] concerns Pyricularia oryzae (rice blast). As to the kind of experiment: whole plant or invertebrate. Conditions: for RICE BLAST: disease control rating, foliar spray on rice, 400 ppm (+++ at 100 ppm); for pest or weed control at 400 ppm: Pyricularia oryzae, foliar, read-out: RICE BLAST, Test 1, foliar spray on rice, disease control rating at 400 ppm / 100 ppm.
Experiment [4] deals with Twospotted spider mites (Tetranychus urticae Koch). As to the kind of experiment: Mite/insect screen, SM. The settings on record: Tetranychus urticae, foliar, percent mortality, foliar spray on squash, read-out: SM RESULTS %; for mortality at 200 ppm: rate 200 ppm; for mortality at 400 ppm: rate 400 ppm. The procedure, abridged: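 Read-out: percent mortality after standard exposure periods. Test solutions were water dilutions of compound dissolved in acetone/alcohol (50:50) with emulsifier blends; leaves were sprayed to runoff on both surfaces and air-dried for one hour before exposure.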

For experiment [5], the system named is Botrytis cinerea (gray mold). The experiment can be described thus: Test 1 greenhouse foliar spray screen, gray mold on grape berries. Conditions: for GRAY MOLD: disease control rating, spray on grape berries, 400 ppm (+++ at 100 ppm); for pest or weed control at 400 ppm: Botrytis cinerea, foliar, Test 1, spray on grape berries, disease control rating at 400 ppm / 100 ppm.

Experiment [6] concerns Erysiphe graminis tritici (powdery mildew). The experiment can be described thus: Test 1 greenhouse foliar spray screen, powdery mildew on wheat. The settings on record: for POWD MDEW: disease control rating, foliar spray on wheat, 400 ppm (+++ at 100 ppm); for pest or weed control at 400 ppm: Blumeria graminis, foliar, Test 1, foliar spray on wheat, disease control rating at 400 ppm / 100 ppm, read-out: POWD MDEW.

Experiment [7] relates to southern armyworm (Spodopetra eridania Cramer). As to the kind of experiment: Mite/insect screen, SAW. The settings on record: Spodoptera eridania, foliar, percent mortality, foliar spray on squash, read-out: SAW RESULTS %; for mortality at 200 ppm: rate 200 ppm; for mortality at 400 ppm: rate 400 ppm. The procedure, abridged:
as §1

A further experiment deals with corn rootworm. As to the kind of experiment: Mite/insect screen, CRW. The settings on record: percent mortality, read-out: CRW RESULTS %; for mortality at 12 ppm: CRW rate 12.00 ppm; for mortality at 24 ppm: CRW rate 24.00 ppm. The gist of the method: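 Stock in acetone:alcohol 1:1 + TOXIMUL R 23 g/L + TOXIMUL S 13 g/L; diluted with water to indicated concentrations; mortality (%) after standard exposure.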

The test system of experiment [8] is Puccinia recondita tritici (leaf rust). As to the kind of experiment: Test 1 greenhouse foliar spray screen, leaf rust on wheat. The settings on record: for LEAF RUST: disease control rating, foliar spray on wheat, 400 ppm (+++ at 100 ppm); for pest or weed control at 400 ppm: Puccinia recondita, foliar, Test 1, foliar spray on wheat, disease control rating at 400 ppm / 100 ppm.

On to `FC(F)(F)c1ccc2c(NCCC3=CCCCC3)ccnc2c1` [Example 167, N-[2-(1-cyclohexenyl)ethyl]-7-(trifluoromethyl)-4-quinolinamine], for which, in experiment [1], the mortality at 200 ppm came out at 0% and the mortality at 400 ppm was 0%. Besides, in [2], the “DOWN MDEW” value is recorded as “+ (20-89% control at 400 ppm)”. Further, in experiment [3], the “RICE BLAST” value is “- (0-19% control at 400 ppm)”. In [4], the mortality at 200 ppm came to 0% and the mortality at 400 ppm turned out to be 0%. Also, in experiment [5], the “GRAY MOLD” value is listed as “- (0-19% control at 400 ppm)”. Also, the “POWD MDEW” value in [6] was “+ (20-89% control at 400 ppm)”. For the same compound, in experiment [7], the mortality at 200 ppm came out at 0% and the mortality at 400 ppm is 0%. In addition, in the experiment with corn rootworm, the mortality at 12 ppm was determined as 0% and the mortality at 24 ppm was 0%. In experiment [8], the “LEAF RUST” value was “- (0-19% control at 400 ppm)”.
As for `Fc1cccc2c(NCCC3CCCCC3)ccnc12` [Example 177, N-(2-cyclohexylethyl)-8-fluoro-4-quinolinamine], in experiment [1], the mortality at 200 ppm turned out to be 0% and the mortality at 400 ppm stood at 0%. The “DOWN MDEW” value in [2] is “+++ (90-100% control at 100 ppm)”. The “RICE BLAST” value in [3] was “+++ (90-100% control at 100 ppm)”. In experiment [4], the mortality at 200 ppm amounted to 0% and the mortality at 400 ppm came out at 0%. Besides, in experiment [5], the “GRAY MOLD” value was “- (0-19% control at 400 ppm)”. Further, the “POWD MDEW” value in experiment [6] was “++ (90-100% control at 400 ppm)”. In addition, in experiment [7], the mortality at 200 ppm stood at 0% and the mortality at 400 ppm came to 0%. Also, in the experiment with corn rootworm, the mortality at 12 ppm stood at 0% and the mortality at 24 ppm came out at 100%. Also, in experiment [8], the “LEAF RUST” value is given as “+++ (90-100% control at 100 ppm)”.
As for `Cc1cc(C)c2nccc(NCCC3CCCCC3)c2c1` [Example 178, N-(2-cyclohexylethyl)-6,8-dimethyl-4-quinolinamine], in experiment [1], the mortality at 200 ppm amounted to 0% and the mortality at 400 ppm was 0%. For the same compound, the “DOWN MDEW” value in [2] is “+++ (90-100% control at 100 ppm)”. Besides, the “RICE BLAST” value in experiment [3] was “+ (20-89% control at 400 ppm)”. Also, in [4], the mortality at 200 ppm is 0% and the mortality at 400 ppm stood at 0%. Further, in [5], the “GRAY MOLD” value was “- (0-19% control at 400 ppm)”. Moreover, the “POWD MDEW” value in [6] is “- (0-19% control at 400 ppm)”. In experiment [7], the mortality at 200 ppm is 0% and the mortality at 400 ppm turned out to be 0%. In the experiment on corn rootworm, the mortality at 12 ppm stood at 0% and the mortality at 24 ppm came to 0%. For the same compound, in experiment [8], the “LEAF RUST” value is “++ (90-100% control at 400 ppm)”.
As for `CC(=O)N(CCc1ccc(Cl)cc1)c1cc(N(CCc2ccc(Cl)cc2)C(C)=O)c2ccccc2n1` [Example 182, N,N'-(2,4-quinolinediyl)bis[N-[2-(4-chlorophenyl)ethyl]acetamide]], in experiment [1], the mortality at 200 ppm turned out to be 0% and the mortality at 400 ppm was 0%. In experiment [2], the “DOWN MDEW” value is “- (0-19% control at 400 ppm)”. Further, the “RICE BLAST” value in [3] is recorded as “+ (20-89% control at 400 ppm)”. Also, in experiment [4], the mortality at 200 ppm turned out to be 0% and the mortality at 400 ppm turned out to be 0%. The “GRAY MOLD” value in [5] is recorded as “- (0-19% control at 400 ppm)”. In addition, in experiment [6], the “POWD MDEW” value was “- (0-19% control at 400 ppm)”. In [7], the mortality at 200 ppm is 0% and the mortality at 400 ppm is 0%. Also, in the experiment with corn rootworm, the mortality at 12 ppm turned out to be 0% and the mortality at 24 ppm was 0%. In addition, in experiment [8], the “LEAF RUST” value is “- (0-19% control at 400 ppm)”.
Regarding `Clc1ccc(CCNc2ccc3nccc(NCCc4ccc(Cl)cc4)c3c2)cc1` [Example 185, N,N'-bis[2-(4-chlorophenyl)ethyl]-4,6-quinolinediamine], the mortality at 200 ppm in experiment [1], in experiment [4] and in experiment [7] was 0% each time. Moreover, the mortality at 400 ppm in experiment [1], in experiment [4] and in [7] was 0% each time. Further, in experiment [2], the “DOWN MDEW” value is on record as “+ (20-89% control at 400 ppm)”. Further, in experiment [3], the “RICE BLAST” value is listed as “+ (20-89% control at 400 ppm)”. For the same compound, the “GRAY MOLD” value in experiment [5] is “- (0-19% control at 400 ppm)”. For the same compound, in experiment [6], the “POWD MDEW” value is “- (0-19% control at 400 ppm)”. The mortality at 12 ppm with corn rootworm worked out at 0%. In the experiment on corn rootworm, the mortality at 24 ppm amounted to 0%. In addition, the “LEAF RUST” value in [8] is given as “+ (20-89% control at 400 ppm)”.
`Fc1cccc2c(NCCc3ccc(Cl)cc3)cc(NCCc3ccc(Cl)cc3)nc12` [Example 188, N,N'-bis[2-(4-chlorophenyl)ethyl]-8-fluoro-2,4-quinolinediamine]: the mortality at 400 ppm in experiment [1], in experiment [4] and in experiment [7] was 0% throughout. Besides, the pest or weed control at 400 ppm was 90 to 100% in experiment [2]; 90 to 100% in experiment [3]; 0 to 19% in experiment [5]; 0 to 19% in experiment [6]; 20 to 89% in experiment [8]. Besides, the mortality at 24 ppm in the experiment with corn rootworm was 0%.
`CC(=O)N(CCc1ccc(Cl)cc1)c1ccc2c(N(CCc3ccc(Cl)cc3)C(C)=O)ccnc2c1` [Example 191, N,N'-(4,7-quinolinediyl)bis[N-[2-(4-chlorophenyl)ethyl]acetamide]]: the mortality at 200 ppm in experiment [1], in experiment [4] and in [7] was 0% throughout. The mortality at 400 ppm in experiment [1], in experiment [4] and in experiment [7] was 0% throughout. Also, the pest or weed control at 400 ppm was 0 to 19% in experiment [2]; 20 to 89% in [3]; 0 to 19% in experiment [5]; 0 to 19% in [6]; 90 to 100% in [8]. In addition, the mortality at 12 ppm in the experiment with corn rootworm came out at 0%. Also, the mortality at 24 ppm with corn rootworm stood at 0%.
Consider `Cc1ccc(CCOc2cc(Cl)nc3c(F)cccc23)cc1` [Example 193, 2-chloro-8-fluoro-4-[2-(4-methylphenyl)ethoxy]quinoline], for which the mortality at 200 ppm in experiment [1], in [4] and in experiment [7] was 0% each time. Further, the mortality at 400 ppm in experiment [1], in experiment [4] and in [7] was 0% throughout. Moreover, the pest or weed control at 400 ppm in experiment [2] is 0 to 19%; in experiment [3] it was 0 to 19%; in experiment [5], 0 to 19%; in experiment [6], 0 to 19%; in experiment [8] it was 20 to 89%. In addition, the mortality at 12 ppm in the experiment with corn rootworm was found to be 0%. Moreover, the mortality at 24 ppm in the experiment with corn rootworm was determined as 0%.
Consider `Clc1cc(Cl)c2c(OCCc3ccc(-c4ccccc4)cc3)ccnc2c1` [Example 194, 5,7-dichloro-4-[2-(1,1'-biphenyl)-4-ylethoxy]quinoline], for which the mortality at 200 ppm in experiment [1], in experiment [4] and in [7] was 0% in each case. The mortality at 400 ppm in experiment [1], in [4] and in [7] was 0% in each case. Further, the pest or weed control at 400 ppm in experiment [2] was 0 to 19%; in experiment [3], 0 to 19%; in experiment [5], 0 to 19%; in experiment [6] it was 20 to 89%; in experiment [8], 0 to 19%. Further, the mortality at 12 ppm with corn rootworm was found to be 0%. Moreover, the mortality at 24 ppm in the experiment with corn rootworm was 0%.
For `COc1cccc(CCOc2ccnc3c(F)cccc23)c1` [Example 195, 4-[2-(3-methoxyphenyl)ethoxy]-8-fluoroquinoline], the mortality at 400 ppm in experiment [1], in experiment [4] and in experiment [7] was 0% in each case. The pest or weed control at 400 ppm in experiment [2] lay within 90 to 100%; in [3], 90 to 100%; in experiment [5], 0 to 19%; in experiment [6] it was 90 to 100%; in [8] it was 90 to 100%. Moreover, the mortality at 24 ppm in the experiment on corn rootworm was 0%.

Source of the values: patent publication EP0326331B1, “Substituted quinolines and cinnolines” (Dow AgroSciences LLC, priority 1988, dated 1989).
